The values below come from patent US12595279B2, “Modified nucleoside and synthetic methods thereof” (STEMIRNA THERAPEUTICS CO., LTD., priority 2019, dated 2026).

Assay [1] has as its system mice dendritic cells (D.2.4 cells). The experiment in a line: Expression of 100% cytidine-modified luciferase (FLuc) mRNA, LPP-wrapped, in dendritic cells (luciferase activity, RLU). Conditions: FIG. 2; for difference of luciferase expression versus the control and m^4C (significance analysis on variance): 100% of cytidine replaced, control = cytidine without modification, P≤0.01, 24 h after transfection. Format: cell-based. An excerpt: Obtaining of the mRNA of the modified luciferase: DNA sequence of Luc may be in vitro transcribed to mRNA by means of a transcriptase under a conventional reagent condition. During the process of transcription, modified mRNA in varying proportions were obtained according to a ratio of the modified C (cytidine) and non-modified C, where the modified mRNA may contain U-modified mRNA in varying proportions. The sequence was in vitro synthesized into the following modified mRMA, thus forming new modified luciferase. In the above sequence (SEQ NO:1), cytidine was replaced by the modified C* in the present invention; and the following modified C* denotes the expression of the mRNA of 5 monocytidine-modified mRNA having a modification ratio of 100% (namely, all the C were replaced into the following 5 different C* modifications, m^4C (N4-methylcytidine), and m^4Cm (N^4, 2′-O-dimethylcytidine), specifically as shown in Table 1.
1.2.1: Preparation of a phospholipid mixed liquor: phospholipid:DOPE:mPEG2000-DSPE=49:49:2 were dissolved into an ethanol solution. DOPE was purchased from Avanti, mPEG2000-DSPE was purchased from cordenpharma, and PBS was purchased from Invitrogen.
1.2.2: Preparation of mRNA: 1 mL mRNA (mRNA having a concentration of 0.2 mg/mL and total mass of 0.2 mg as shown in Table 2) in each treatment group was respectively sucked up by a BD injector.
1.2.3: Preparation of phospholipid/mRNA: […] and 3 mL phospholipid solution (having a concentration of 12 mg/mL) were respectively sucked up by a BD injector and inserted into a micro-fluidic chip (the microfluidics herein should be a small-sized equipment capable of producing package for nanoparticles); the setup parameters: volume: 9.0 mL; and flow rate ratio: 3:1, total flow rate: 1 mL/min; temperature: 37.0° C., initial amount: 0.35 mL; ending amount: 0.10 mL, thus a phospholipid/mRNA solution was obtained, namely, mRNA particles wrapped by phospholipid and a phospholipid mixed solution were obtained.
Thereby, the wrapped mRNA carrier in each treatment group was obtained.
Experiment reagent: (1) water was added to a harvest buffer (25 ml): 1.25 ml 1 M Tris-HCl(pH7.5), 25 μl 1 M DTT, 250 μl 10% Triton X-100 to 25 ml for storage at 4° C. (2) water was added to an ATP buffer (10 ml): 1.25 ml 1 M Tris-HCl(pH7.5), 250 μl 1 M MgCl2, 24 mg ATP to 10 ml for storage at […] (3) luciferin buffer (36 ml): 10 mg luciferin, 36 ml 5 mM KH2PO4 (pH7.8) was performed for storage at 4° C. (4) PBS: […], 2.68 mMKCl, 10 mM Na2HPO4, 1.76 mM KH2PO4 was performed for storage at 4° C. […]
1.3.6: same volume of cell lysis buffer (100 μl) was successively taken and put to the microcentrifuge tubes in step 5, and mixed evenly immediately, and […] were read on a Luminometer. […]

The subject of assay [2] is dendritic cells. Kind of assay: Influence of a 120A Poly(A) tail on the 3′ terminal on expression of modified luciferase mRNA in dendritic cells. The following applies: 120A tail; luciferase mRNA 100% modified; compared with FIG. 2 (FIG. 3). The assay is classed as cell-based, mice. On the procedure:
120A was added on a 3′ terminal as a tail, so as to survey the influence of adding Poly(A) on the 3′ terminal on the translation effect, as well as on the expression of the luciferase 100% modified by the inventions 1-4 and control group. The influence on enzyme expression was measured according to the packaging method and cell infection method in Example 1. It can be obviously seen through the comparison of FIG. 2 that the expression was increased both to the modified or non-modified mRNA after adding a Ploy (A) structure on the 3′ terminal.

Assay [3] deals with dendritic cells. The experiment in a line: Influence of different modification ratios of cytidine on luciferase mRNA expression. Format: cell-based, mice. The following applies: for difference of expression at the best modification ratio versus other modification ratios (variance analysis): best ratio: invention 1 80%-100%, invention 4 20%, invention 2 40%, invention 3 5%; for trend of expression with the increase of the modification ratio: cytidine replaced at 0.5% to 100%; for trend of expression with the increase of the modification ratio / modification ratio with the maximum (optimal) expression quantity: FIGS. 4-7; for modification ratio with the maximum (optimal) expression quantity / modification ratio at which the expression quantity is relatively high: luciferase mRNA, part of the cytidine replaced; for modification ratio at which the expression quantity is relatively high: FIGS. 5-7. On the procedure:
mRNA of the luciferase in Example 1 was set as an example; a portion of cytidine was replaced with the compounds of the modified cytidine in the present invention having a ratio of 0.5%, 5%, 10%, 20%, 30%, 40%, 50%, 70%, 80% and 90%; and the specific replacement method was as follows: transcription was performed by a transcriptase of in vitro luciferase DNA with the supply of AUCG raw materials and according to a conventional method, where the synthesis method should be controlled and replaced, and then a portion of cytidine in mRNA was replaced according to the above ratio. The influence of the replacement in different ratios on the expression of mRNA was surveyed.

`NC(N)=Nc1ccn(C2OC(COP(=O)([O-])OP(=O)([O-])OP(=O)([O-])[O-])C(O)C2O)c(=O)n1.[K+].[K+].[K+].[K+]` (stereo not shown) [invention 1]: the “difference of luciferase expression versus the control and m^4C (significance analysis on variance)” value (“difference … (significance analysis on variance)” for short) in assay [1] is listed as “highly significant difference”. The “change of expression after adding a Poly(A) structure on the 3′ terminal” value in assay [2] is “comparatively obvious”. Further, in assay [3], the “difference of expression at the best modification ratio versus other modification ratios (variance analysis)” value is on record as “significant difference”, the “trend of expression with the increase of the modification ratio” value is “increased” and the “modification ratio with the maximum (optimal) expression quantity” value (shortened to “modification ratio with the maximum”) is listed as 80%-100%.

Take `Cc1cn(C2CC(O)C(COP(=O)([O-])OP(=O)([O-])OP(=O)([O-])[O-])O2)c(=O)nc1N=C(N)N.[K+].[K+].[K+].[K+]` (stereo not shown) [invention 2]: the “difference of luciferase expression versus m^4Cm-modified mRNA” value in assay [1] (100% modification, comparator m^4Cm (N^4,2′-O-dimethylcytidine)) is recorded as “no significant difference”. In assay [1], the “difference … (significance analysis on variance)” value is on record as “highly significant difference”. In addition, in assay [3], the “difference of expression at the best modification ratio versus other modification ratios (variance analysis)” value was “significant or highly significant differences”, the “trend of expression with the increase of the modification ratio” value is listed as “gradually increases”, the “modification ratio with the maximum” value is 40% and the “modification ratio at which the expression quantity is relatively high” value is 20%-40%.

Turning to `Cc1c(O)c(N=C(N)N)nc(=O)n1C1OC(COP(=O)([O-])OP(=O)([O-])OP(=O)([O-])[O-])C(O)C1O.[K+].[K+].[K+].[K+]` (stereo not shown) [invention 4], in assay [1], the “difference … (significance analysis on variance)” value is “highly significant difference”. In addition, in assay [3], the “difference of expression at the best modification ratio versus other modification ratios (variance analysis)” value is recorded as “significant or highly significant differences”, the “trend of expression with the increase of the modification ratio” value is on record as “gradually increases”, the “modification ratio with the maximum” value is 20% and the “modification ratio at which the expression quantity is relatively high” value was 20%-40%.
